Counter-ions that a name gives are not always drawn.

Data on 35 molecules can be found in patent US20040006236A1, “Diaminopropionic acid derivatives” (priority 1999, published 2004).

For one experiment, the system named is cell-surface Mac-1 adhesion to immobilized fibrinogen (HL-60 cells). The experiment in a line: Mac-1/Fibrinogen cell-based screening assay. More on the design: species or system human. Particulars: Homo sapiens, HL-60, HL-60 cells; read-out: Mac-1/Fgn Cell based Assay IC50. A digest of the protocol:
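Wells coated with fibrinogen and blocked with PVP. Labeled HL-60 cells (2×10^6 cells/mL in RPMI/0.05% BSA/0.2 mM MnCl2) preincubated with DMSO-diluted compounds for 10 min at 37° C, then left to adhere 30 min at 37° C/5% CO2. Unbound cells washed off with TBS.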
In the case of `O=C(NCc1cccc(O)c1)c1cc(Cl)c(C(=O)N[C@@H](CNC(=O)c2cc(O)cc(O)c2)C(=O)O)c(Cl)c1` [Example 345, N-[2,6-dichloro-4-[[[(3-hydroxyphenyl)methyl]amino]carbonyl]benzoyl]-3-(3,5-dihydroxybenzoylamino)-L-alanine], the IC50 is 0.3 nM.
The same measure, in the same setting: the result for `O=C(NCc1cccc(O)c1)c1cc(Cl)c(C(=O)N[C@@H](CNC(=O)c2cc(F)cc(F)c2)C(=O)O)c(Cl)c1` [Example 344, N-[2,6-dichloro-4-[[[(3-hydroxyphenyl)methyl]amino]carbonyl]benzoyl]-3-[(3,5-difluorobenzoyl)amino]-L-alanine] reads 4.8 nM; that for `Cc1cc(C(=O)NCc2cccc(O)c2)cc(C)c1C(=O)N[C@@H](CNC(=O)c1cc(F)cc(F)c1)C(=O)O` [Example 337, N-[2,6-dimethyl-4-[[[(3-hydroxyphenyl)methyl]amino]carbonyl]benzoyl]-3-(3,5-difluorobenzoylamino)-L-alanine], 12 nM.
Same read-out and setting: the figure for `O=C(NCc1cccc2[nH]ncc12)c1ccc(C(=O)N[C@@H](CNC(=O)c2cccs2)C(=O)O)c(Cl)c1` [Example 327, N-[2-chloro-4-[[[(1H-indazol-4-yl)methyl]amino]carbonyl]benzoyl]-3-(thiophene-2-carbonyl)amino-L-alanine] is 18 nM.
As for `O=C(NCc1cccc(O)c1)c1cc(Cl)c(C(=O)N[C@@H](CNC(=O)c2cccs2)C(=O)O)c(Cl)c1` [Example 342, N-[2,6-dichloro-4-[[[(3-hydroxyphenyl)methyl]amino]carbonyl]benzoyl]-3-[(thiophene-2-carbonyl)amino]-L-alanine], the IC50 came out at 1 nM.
Still for that read-out and setting: the result for `O=C(NCc1cccc(O)c1)c1ccc(C(=O)N[C@@H](CNC(=O)c2ccoc2)C(=O)O)c(Cl)c1` [Example 259, N-[2-chloro-4-[[[(3-hydroxyphenyl)methyl]amino]carbonyl]benzoyl]-3-(furan-3-carbonyl)amino-L-alanine] reads 63 nM.
The same measure, in the same setting: the figure for `Cc1cc(C(=O)N[C@H](C)c2cccc3ccccc23)cc(C)c1C(=O)N[C@@H](CNC(=O)c1cccs1)C(=O)O` [Example 333] is 12 nM; for `Cc1cc(C(=O)NCc2cccc(O)c2)cc(Cl)c1C(=O)N[C@@H](CNC(=O)c1ccsc1)C(=O)O` [Example 339, N-[2-chloro-4-[[[(3-hydroxyphenyl)methyl]amino]carbonyl]-6-methylbenzoyl]-3-[(thiophene-3-carbonyl)amino]-L-alanine] it is 3.1 nM.

The target of another experiment is T1, ICAM-1 binding to immobilized Mac-1 (Homo sapiens, UniProt P05107+P11215).
T1 construct: made in house; host or cells: transfected 293 cells (Mac-1)
T1 sequence (P05107 23-769, other chains not shown): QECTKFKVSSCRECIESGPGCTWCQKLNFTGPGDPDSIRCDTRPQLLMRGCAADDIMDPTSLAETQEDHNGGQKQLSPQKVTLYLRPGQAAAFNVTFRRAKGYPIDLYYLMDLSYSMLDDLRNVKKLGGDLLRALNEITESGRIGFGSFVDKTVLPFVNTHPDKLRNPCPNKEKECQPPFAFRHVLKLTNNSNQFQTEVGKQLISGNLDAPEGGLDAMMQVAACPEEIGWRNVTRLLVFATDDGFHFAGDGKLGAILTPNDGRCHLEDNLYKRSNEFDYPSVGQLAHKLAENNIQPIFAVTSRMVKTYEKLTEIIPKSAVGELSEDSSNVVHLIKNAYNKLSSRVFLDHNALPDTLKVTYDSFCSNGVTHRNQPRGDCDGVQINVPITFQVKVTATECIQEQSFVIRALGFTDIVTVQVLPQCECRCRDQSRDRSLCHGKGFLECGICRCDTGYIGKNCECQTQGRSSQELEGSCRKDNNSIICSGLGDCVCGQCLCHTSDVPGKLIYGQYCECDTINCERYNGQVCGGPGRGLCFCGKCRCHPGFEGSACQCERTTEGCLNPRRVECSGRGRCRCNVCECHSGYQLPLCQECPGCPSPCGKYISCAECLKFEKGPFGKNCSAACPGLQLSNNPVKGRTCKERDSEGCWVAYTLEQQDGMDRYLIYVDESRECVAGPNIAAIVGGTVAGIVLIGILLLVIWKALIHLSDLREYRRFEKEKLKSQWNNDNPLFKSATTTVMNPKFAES
The experiment in a line: Mac-1/ICAM-1 screening assay (solid-phase ELISA). Particulars: read-out: Mac-1/ICAM-1 Protein-Protein Assay IC50. In outline:
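Competitive solid-phase ELISA: membrane Mac-1 from transfected 293 cells coated at 3 μg/mL in 20 mM Hepes pH 7.2/0.14 M NaCl/1 mM MnCl2; compounds (0.12 nM-20 μM, 1:4 series) plus 5dICAM-Ig (40 μg/mL, added) 2 h at 37° C. Bound ICAM-Ig detected with HRP anti-human IgG Fc, TMB, A450; IC50 reported.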
On the technique in general: ELISA stands for enzyme-linked immunosorbent assay.
Take `O=C(Cc1cccc(C(F)(F)F)c1)NC[C@H](NC(=O)c1ccc(C(=O)NCc2cccc(O)c2)cc1Cl)C(=O)O` [Example 82]: the IC50 came to 62 nM.
On the same count and under the same terms, the figure for `O=C(NC[C@H](NC(=O)c1c(Cl)cccc1Cl)C(=O)O)c1ccc(Br)s1` [Example 223] is 82 nM; for `N[C@@H](Cc1c[nH]c2ccccc12)C(=O)NC[C@H](NC(=O)c1ccc(C(=O)NCc2cccc(O)c2)cc1Cl)C(=O)O` [Example 201] it is 49 nM; for `Cc1nnsc1C(=O)NC[C@H](NC(=O)c1ccc(C(=O)NCc2cccc(O)c2)cc1Cl)C(=O)O` [Example 255] it is 41 nM.
Regarding `O=C(CC1CCCCC1)NC[C@H](NC(=O)c1ccc(C(=O)NCc2cccc(O)c2)cc1Cl)C(=O)O` [Example 78], the IC50 turned out to be 94 nM.
Still for that read-out and setting: the result for `C[C@@H](NC(=O)c1ccc(C(=O)N[C@@H](CNC(=O)c2cccs2)C(=O)O)c(Br)c1)c1cccc2ccccc12` [Example 332] reads 68 nM; that for `N[C@H]1CC[C@@H](C(=O)NC[C@H](NC(=O)c2ccc(C(=O)NCc3cccc(O)c3)cc2Cl)C(=O)O)CC1` [Example 264], 25 nM; that for `CC(C)CC(=O)NC[C@H](NC(=O)c1ccc(C(=O)NCc2cccc(O)c2)cc1Cl)C(=O)O` [Example 195], 47 nM.
On the same count and under the same terms, the figure for `O=C(NC[C@H](NC(=O)c1ccc(-n2nnnc2NCc2cccc(O)c2)cc1Cl)C(=O)O)c1cccs1` [Example 321] is 76 nM; for `O=C(NCc1cccc(O)c1)c1ccc(C(=O)N[C@@H](CNC(=O)C(c2ccccc2)c2ccccc2)C(=O)O)c(Cl)c1` [Example 86] it is 179 nM.
On to `O=C(NC[C@H](NC(=O)c1c(F)cccc1Cl)C(=O)O)c1ccc(Br)s1` [Example 224], for which the IC50 came out at 377 nM.
Turning to `O=C(Cc1ccccc1)NC[C@H](NC(=O)c1ccc(C(=O)NCc2cccc(O)c2)cc1Cl)C(=O)O` [Example 79], the IC50 is 74 nM.
For the molecule `O=C(NCc1cccc2[nH]ccc12)c1ccc(C(=O)N[C@@H](CNC(=O)c2ccoc2)C(=O)O)c(Cl)c1` [Example 316], the IC50 came to 24 nM.
On the same count and under the same terms, the result for `O=C(Cc1ccc([N+](=O)[O-])cc1)NC[C@H](NC(=O)c1ccc(C(=O)NCc2cccc(O)c2)cc1Cl)C(=O)O` [Example 81] reads 58 nM; that for `NC(=O)C[C@H](N)C(=O)NC[C@H](NC(=O)c1ccc(C(=O)NCc2cccc(O)c2)cc1Cl)C(=O)O` [Example 200], 33 nM.
Same read-out and setting: the figure for `O=C(NCc1cccc(O)c1)c1ccc(C(=O)N[C@@H](CNC(=O)C23CC4CC(CC(C4)C2)C3)C(=O)O)c(Cl)c1` [Example 93] is 57 nM; for `O=C(NCc1cccc(O)c1)c1ccc(C(=O)N[C@@H](CNC(=O)c2cccs2)C(=O)O)c(Cl)c1` [Example 305, N-[2-chloro-4-[[[(3-hydroxyphenyl)methyl]amino]carbonyl]benzoyl]-3-(thiophene-2-carbonyl)amino-L-alanine, sodium salt] it is 19 nM.
On the same count and under the same terms, the result for `O=C(C[n+]1csc2ccccc21)NC[C@H](NC(=O)c1ccc(C(=O)NCc2cccc(O)c2)cc1Cl)C(=O)O` [Example 89] reads 464 nM.
Turning to `O=C(NCc1cccc(O)c1)c1ccc(C(=O)N[C@@H](CNC(=O)c2ccc3c(c2)S(=O)(=O)c2ccccc2C3=O)C(=O)O)c(Cl)c1` [Example 192], the IC50 stood at 40 nM.
Still for that read-out and setting: the figure for `O=C(NCc1cccc(O)c1)c1ccc(C(=O)N[C@@H](CNC(=O)c2cnccn2)C(=O)O)c(Cl)c1` [Example 170] is 116 nM; for `CSCC[C@H](N)C(=O)NC[C@H](NC(=O)c1ccc(C(=O)NCc2cccc(O)c2)cc1Cl)C(=O)O` [Example 197] it is 38 nM; for `O=C(NCc1cccc2c1CCN2)c1ccc(C(=O)N[C@@H](CNC(=O)c2cccs2)C(=O)O)c(Cl)c1` [Example 318, 3-(thiophene-2-carbonyl)amino-N-[2-chloro-4-[[(2,3-dihydro-1H-indol-4-ylmethyl)amino]carbonyl]benzoyl]-L-alanine] it is 98 nM.
On the same count and under the same terms, the figure for `Nc1cccc(CNC(=O)c2ccc(C(=O)N[C@@H](CNC(=O)c3cccs3)C(=O)O)c(Br)c2)c1` [Example 334, N-[4-[[[(3-aminophenyl)methyl]amino]carbonyl]-2-bromobenzoyl]-3-(thiophene-2-carbonyl)amino-L-alanine] is 71 nM.
Still for that read-out and setting: the result for `O=C(NC[C@H](NC(=O)c1c(Cl)cccc1Cl)C(=O)O)c1ccccc1` [Example 219] reads 319 nM.
Regarding `N[C@@H](CCC(=O)NC[C@H](NC(=O)c1ccc(C(=O)NCc2cccc(O)c2)cc1Cl)C(=O)O)C(=O)O` [Example 202], the IC50 amounted to 37 nM.
The same measure, in the same setting: the figure for `NCCCC[C@H](N)C(=O)NC[C@H](NC(=O)c1ccc(C(=O)NCc2cccc(O)c2)cc1Cl)C(=O)O` [Example 198] is 48 nM.
Regarding `O=C(NCc1cccc2[nH]cnc12)c1ccc(C(=O)N[C@@H](CNC(=O)c2cccs2)C(=O)O)c(Cl)c1` [Example 322], the IC50 was found to be 51 nM.
